Data published in US8114843B2, “Photoreactive regulator of protein function and methods of use thereof” (The Regents of the University of California, priority 2005, dated 2012).

Biological target: T1, Kv4.2 (Homo sapiens, UniProt Q9NZV8)
T1 construct: expressed in transfected cells; host or cells: HEK cells
T1 sequence (Q9NZV8 1-630): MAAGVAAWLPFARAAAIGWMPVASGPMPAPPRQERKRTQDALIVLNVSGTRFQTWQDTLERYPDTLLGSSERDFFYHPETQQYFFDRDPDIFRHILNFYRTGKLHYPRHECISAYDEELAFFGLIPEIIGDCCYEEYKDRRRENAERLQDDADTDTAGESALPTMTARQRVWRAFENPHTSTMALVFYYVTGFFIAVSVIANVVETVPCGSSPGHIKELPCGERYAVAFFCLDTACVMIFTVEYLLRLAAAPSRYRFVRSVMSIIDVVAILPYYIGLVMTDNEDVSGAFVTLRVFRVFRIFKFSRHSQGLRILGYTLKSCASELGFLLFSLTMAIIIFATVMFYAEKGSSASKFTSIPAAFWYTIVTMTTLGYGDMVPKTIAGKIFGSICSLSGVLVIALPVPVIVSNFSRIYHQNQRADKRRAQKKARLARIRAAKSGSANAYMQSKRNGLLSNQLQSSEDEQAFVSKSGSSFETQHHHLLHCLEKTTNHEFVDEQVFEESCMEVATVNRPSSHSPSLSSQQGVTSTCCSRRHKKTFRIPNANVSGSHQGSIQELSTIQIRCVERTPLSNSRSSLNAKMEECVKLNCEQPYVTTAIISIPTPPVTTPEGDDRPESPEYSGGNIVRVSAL
Test: PAL photoswitching, whole-cell patch clamp in HEK cells
Format: cell-based
Conditions: n=6
Method: Cell culture and transfection. HEK293 cells were grown in DMEM containing 5% fetal bovine serum, at 37° C., 7% CO2. For electrophysiology, cells were plated at 12×10^5 cells/cm^2 on poly-L-lysine coated coverslips and transfected using the calcium phosphate method. Recordings were performed 24-36 hours after transfection.
PAL attachment. HEK293 and hippocampal cells were rinsed in extracellular solution containing in mM: 138 NaCl, 1.5 KCl, 1.2 MgCl2, 2.5 CaCl2, 5 HEPES, 10 glucose and incubated at 37° C. in the dark with 200-250 μM PAL for 15 minutes. For slices, AAQ was diluted to 200 μM in aCSF and treatment was performed in the dark at room temperature for 10 minutes.
Electrophysiological recording. Recordings from HEK293 and hippocampal neurons were made in the whole-cell patch clamp configuration using a PC-501A amplifier (Warner Instruments). Pulse protocols and measurements were carried out with pCLAMP and a Digidata 1322 interface (Axon Instruments). For voltage-clamp experiment, cells were held at −70 mV. Data was recorded at 20 kHz and filtered at 2 kHz. Recording pipettes with 2.5-4 MΩ resistance were filled with intracellular solution containing in mM: 10 NaCl, 135 K-gluconate, 10 HEPES, 2 MgCl2, 2 MgATP, 1 EGTA, pH 7.4.
Illumination was provided using a xenon lamp (Sutter Instruments) with narrow band pass filters (380 BP10 for UV and 500 BP5 for visible light respectively). Excitation filters were changed using a lambda 10-2 filter changer (Sutter Instruments) controlled via pCLAMP software.
Percent photoswitching was defined as the difference between current in UV and visible light divided by current in UV. All data shown in bar graphs are averages±standard error of the mean.

C=CC(=O)Nc1ccc(/N=N/c2ccc(NC(=O)C[N+](CC)(CC)CC)cc2)cc1 [AAQ]
current turned on and off by light: ~80%
